Assay results: US6737383B1, “Herbicidal oxadiazolidines” (priority 1999, dated 2004)

Assays:
wheat = assay: Test B pre/postemergence wheat; type: in vivo, Triticum aestivum
Outline: (§1)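 Test chemicals in a non-phytotoxic solvent mixture with surfactant were sprayed preemergence onto planted seeds and postemergence onto plants 2 to 18 cm tall (1- to 4-leaf stage). After twelve to sixteen days in a greenhouse, injury was visually rated against untreated controls from 0 (no effect) to 10 (complete control).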

surinam grass = assay: Test B pre/postemergence surinam grass; type: in vivo, Brachiaria decumbens
Outline: as §1

morningglory = assay: Test B pre/postemergence morningglory; type: in vivo, Ipomoea hederacea
Outline: as §1

velvetleaf = assay: Test B pre/postemergence velvetleaf; type: in vivo, Abutilon theophrasti
Outline: as §1

bedstraw = assay: Test B pre/postemergence bedstraw; type: in vivo, Galium aparine; conditions: Preemergence; for Bedstraw plant response rating: scale 0 to 10, 0 is no effect, 10 is complete control
Outline: as §1

wild oat = assay: Test B pre/postemergence wild oat; type: in vivo, Avena fatua
Outline: as §1

rape = assay: Test B pre/postemergence rape; type: in vivo, Brassica napus
Outline: as §1

pigweed = assay: Test B pre/postemergence pigweed; type: in vivo, Amaranthus retroflexus
Outline: as §1

corn = assay: Test B pre/postemergence corn; type: in vivo, Zea mays
Outline: as §1

cocklebur = assay: Test B pre/postemergence cocklebur; type: in vivo, Xanthium strumarium
Outline: as §1

crabgrass = assay: Test B pre/postemergence crabgrass; type: in vivo, Digitaria sanguinalis
Outline: as §1

soybean = assay: Test B pre/postemergence soybean; type: in vivo, Glycine max
Outline: as §1

blackgrass = assay: Test B pre/postemergence blackgrass; type: in vivo, Alopecurus myosuroides
Outline: as §1

sugar beet = assay: Test B pre/postemergence sugar beet; type: in vivo, Beta vulgaris
Outline: as §1

purple nutsedge = assay: Test B pre/postemergence purple nutsedge; type: in vivo, Cyperus rotundus
Outline: as §1

giant foxtail = assay: Test B pre/postemergence giant foxtail; type: in vivo, Setaria faberii
Outline: as §1

[1] = Postemergence, Rate 62 g/ha, scale of 0 to 10, 0 is no effect, 10 is complete control
[2] = Postemergence, Rate 125 g/ha, scale 0 to 10, 0 is no effect, 10 is complete control
[3] = Postemergence, Rate 500 g/ha, scale 0 to 10, 0 is no effect, 10 is complete control
[4] = Preemergence, Rate 62 g/ha, scale of 0 to 10 where 0 is no effect and 10 is complete control
[5] = Preemergence, Rate 125 g/ha, scale 0 to 10, 0 is no effect, 10 is complete control
[6] = Preemergence, Rate 500 g/ha, scale of 0 to 10 where 0 is no effect and 10 is complete control
[7] = Preemergence, Rate 250 g/ha, scale 0 to 10, 0 is no effect, 10 is complete control
[8] = Postemergence, Rate 250 g/ha, scale 0 to 10

Structure (SMILES): CC(Cl)=CCn1c(=O)on(C(=O)N(c2ccc(F)cc2F)C(C)C)c1=O [Compound 514]
- Wheat plant response rating (wheat; [1]): 0
- Wheat plant response rating (wheat; [2]): 0
- Plant response rating, Wheat (wheat; [3]): 0
- Plant response rating, Wheat (wheat; [4]): 0
- Wheat plant response rating (wheat; [5]): 0
- Wheat plant response rating (wheat; [6]): 4
- B. signalgrass plant response rating (surinam grass; [1]): 0
- B. signalgrass plant response rating (surinam grass; [2]): 0
- B. signalgrass plant response rating (surinam grass; Postemergence, Rate 250 g/ha, scale 0 to 10, 0 no effect, 10 complete control): 3
- Plant response rating, B. signalgrass (surinam grass; [3]): 5
- Plant response rating, B. signalgrass (surinam grass; [4]): 6
- B. signalgrass plant response rating (surinam grass; [5]): 6
- B. signalgrass plant response rating (surinam grass; [7]): 8
- B. signalgrass plant response rating (surinam grass; Preemergence, Rate 500 g/ha, scale 0 to 10, 0 is no effect, 10 is complete control): 10
- Morningglory plant response rating (morningglory; [1]): 2
- Morningglory plant response rating (morningglory; [2]): 7
- Plant response rating, Morningglory (morningglory; [3]): 7
- Plant response rating, Morningglory (morningglory; [4]): 0
- Morningglory plant response rating (morningglory; [5]): 0
- Morningglory plant response rating (morningglory; [6]): 0
- Velvetleaf plant response rating (velvetleaf; [1]): 2
- Velvetleaf plant response rating (velvetleaf; [2]): 2
- Plant response rating, Velvetleaf (velvetleaf; [3]): 5
- Plant response rating, Velvetleaf (velvetleaf; [4]): 0
- Velvetleaf plant response rating (velvetleaf; [5]): 0
- Velvetleaf plant response rating (velvetleaf; [6]): 5
- Plant response rating, Bedstraw (bedstraw; Rate 62 g/ha, scale of 0 to 10 where 0 is no effect and 10 is complete control): 0
- Bedstraw plant response rating (bedstraw; Rate 250 g/ha): 0
- Bedstraw plant response rating (bedstraw; Rate 500 g/ha): 0
- Wild oats plant response rating (wild oat; [1]): 0
- Wild oats plant response rating (wild oat; [2]): 0
- Plant response rating, Wild oats (wild oat; [3]): 3
- Plant response rating, Wild oats (wild oat; [4]): 3
- Wild oats plant response rating (wild oat; [5]): 4
- Wild oats plant response rating (wild oat; [6]): 6
- Rape plant response rating (rape; [1]): 6
- Rape plant response rating (rape; [2]): 6
- Plant response rating, Rape (rape; [3]): 8
- Plant response rating, Rape (rape; [4]): 0
- Rape plant response rating (rape; [5]): 0
- Rape plant response rating (rape; [6]): 8
- Redroot pigweed plant response rating (pigweed; [1]): 0
- Redroot pigweed plant response rating (pigweed; [2]): 2
- Plant response rating, Redroot pigweed (pigweed; [3]): 8
- Plant response rating, Redroot pigweed (pigweed; [4]): 7
- Redroot pigweed plant response rating (pigweed; [5]): 8
- Redroot pigweed plant response rating (pigweed; [6]): 10
- Corn plant response rating (corn; [1]): 0
- Corn plant response rating (corn; [2]): 0
- Corn plant response rating (corn; [8]): 0
- Plant response rating, Corn (corn; [3]): 5
- Plant response rating, Corn (corn; [4]): 0
- Corn plant response rating (corn; [5]): 0
- Corn plant response rating (corn; [6]): 5
- Cocklebur plant response rating (cocklebur; [1]): 0
- Cocklebur plant response rating (cocklebur; [2]): 1
- Cocklebur plant response rating (cocklebur; [8]): 3
- Plant response rating, Cocklebur (cocklebur; [3]): 5
- Plant response rating, Cocklebur (cocklebur; [4]): 0
- Cocklebur plant response rating (cocklebur; [5]): 0
- Cocklebur plant response rating (cocklebur; [7]): 0
- Cocklebur plant response rating (cocklebur; [6]): 0
- Crabgrass plant response rating (crabgrass; [1]): 7
- Crabgrass plant response rating (crabgrass; [2]): 9
- Crabgrass plant response rating (crabgrass; [8]): 9
- Plant response rating, Crabgrass (crabgrass; [3]): 10
- Plant response rating, Crabgrass (crabgrass; [4]): 5
- Crabgrass plant response rating (crabgrass; [5]): 7
- Crabgrass plant response rating (crabgrass; [6]): 10
- Soybean plant response rating (soybean; [1]): 6
- Soybean plant response rating (soybean; [2]): 7
- Plant response rating, Soybean (soybean; [3]): 7
- Plant response rating, Soybean (soybean; [4]): 0
- Soybean plant response rating (soybean; [5]): 0
- Soybean plant response rating (soybean; [6]): 0
- Blackgrass plant response rating (blackgrass; [1]): 0
- Blackgrass plant response rating (blackgrass; [2]): 3
- Blackgrass plant response rating (blackgrass; [8]): 5
- Plant response rating, Blackgrass (blackgrass; [3]): 5
- Plant response rating, Blackgrass (blackgrass; [4]): 2
- Blackgrass plant response rating (blackgrass; [5]): 2
- Blackgrass plant response rating (blackgrass; [7]): 5
- Blackgrass plant response rating (blackgrass; [6]): 7
- Sugarbeets plant response rating (sugar beet; [1]): 3
- Sugarbeets plant response rating (sugar beet; [2]): 3
- Plant response rating, Sugarbeets (sugar beet; [3]): 5
- Plant response rating, Sugarbeets (sugar beet; [4]): 0
- Sugarbeets plant response rating (sugar beet; [5]): 5
- Sugarbeets plant response rating (sugar beet; [6]): 6
- Nutsedge plant response rating (purple nutsedge; [1]): 0
- Nutsedge plant response rating (purple nutsedge; [2]): 0
- Plant response rating, Nutsedge (purple nutsedge; [3]): 0
- Plant response rating, Nutsedge (purple nutsedge; [4]): 0
- Nutsedge plant response rating (purple nutsedge; [6]): 0
- Giant foxtail plant response rating (giant foxtail; [1]): 6
- Giant foxtail plant response rating (giant foxtail; [2]): 9
- Plant response rating, Giant foxtail (giant foxtail; [3]): 9
- Plant response rating, Giant foxtail (giant foxtail; [4]): 9
- Giant foxtail plant response rating (giant foxtail; [5]): 10
- Giant foxtail plant response rating (giant foxtail; [6]): 10
